How the values were obtained:
[1] = target: HDAC9 (Homo sapiens, UniProt Q9UKV0); assay: Inhibition of histone deacetylase isoforms, HDAC9
Experimental: (§1) Recombinant human enzymes were acquired from BPS Biosciences (CA, USA). Isoforms of Class I HDAC1, 2, 3; HDAC6, 10 of Class IIb and Class IV HDAC11 were tested using the Fluor-de-Lys fluorogenic synthetic substrate (Enzo Life Sciences, Plymouth Meeting, Pa.). […] Each inhibitor was dissolved in DMSO and then further diluted in an assay buffer. […] The assays were performed by pre-incubating each enzyme with the inhibitors for 15 minutes at 37° C. The reaction was started by adding the substrate at 37° C. and allowed to proceed for 60 minutes. The fluorescent signal was generated by adding 50 μL of a twice concentrated developer solution 2 (Enzo) containing trichostatin A 4 μM.

[2] = target: T1, HDAC10 (Homo sapiens, UniProt Q969S8); assay: Inhibition of histone deacetylase isoforms, HDAC10
T1 sequence (Q969S8 1-669): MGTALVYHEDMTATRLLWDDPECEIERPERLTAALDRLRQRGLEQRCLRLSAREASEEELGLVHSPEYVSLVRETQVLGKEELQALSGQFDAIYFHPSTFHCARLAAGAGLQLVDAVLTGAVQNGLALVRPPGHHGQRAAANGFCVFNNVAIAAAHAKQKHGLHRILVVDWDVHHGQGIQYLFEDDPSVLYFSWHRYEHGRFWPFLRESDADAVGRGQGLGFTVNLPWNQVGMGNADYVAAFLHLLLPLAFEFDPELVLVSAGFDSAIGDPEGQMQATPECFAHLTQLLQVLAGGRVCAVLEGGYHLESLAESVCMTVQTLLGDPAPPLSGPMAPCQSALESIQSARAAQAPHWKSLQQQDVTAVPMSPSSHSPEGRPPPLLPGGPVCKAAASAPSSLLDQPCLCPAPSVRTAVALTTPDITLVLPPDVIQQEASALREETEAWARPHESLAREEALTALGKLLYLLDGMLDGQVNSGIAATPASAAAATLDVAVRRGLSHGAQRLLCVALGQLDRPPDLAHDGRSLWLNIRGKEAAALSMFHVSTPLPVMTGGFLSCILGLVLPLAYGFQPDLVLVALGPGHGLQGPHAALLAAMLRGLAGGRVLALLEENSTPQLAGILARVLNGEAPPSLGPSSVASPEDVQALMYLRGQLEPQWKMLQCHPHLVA
Experimental: as §1

[3] = tested on: HIV-1 expression in ACH-2 cells; assay: Induction of the HIV-1 expression in the ACH-2 cell line (p24); type: cell-based; details: 24 hours
Experimental: ACH2 cells were obtained through AIDS Research and Reference Reagent Program, Division of AIDS, National Institute of Allergy and Infectious Diseases, National Institutes of Health, Bethesda, Md. The cells were cultured in flasks, washed in RPMI and resuspended in RPMI/10% FCS at a concentration of 2×10^6 cells/mL. […] After 24 hours of incubation at 37° C./5% CO2, 50 μL of supernatant were removed for the cytotoxicity assay of the lactate dehydrogenase (LDH) and Triton-X-100 (0.5% vol/vol final concentration) were added to each culture. The p24 assays of the lysates were performed immediately.
p24 was measured using specific antibodies immobilized on magnetic beads as previously described [Nold M. F. et al. J. Immunol. […] The levels of p24 for each experiment without HDAC inhibitors were fixed at 1.0 and the increase values by the number of times for each experiment and each analogous were calculated.

[4] = Monzani et al., EUROTOX 2007; cited from earlier work
[5] = target: HDAC4 (Homo sapiens, UniProt P56524); assay: Inhibition of histone deacetylase isoforms, HDAC4
Chain of HDAC4 (P56524 whole entry, canonical isoform): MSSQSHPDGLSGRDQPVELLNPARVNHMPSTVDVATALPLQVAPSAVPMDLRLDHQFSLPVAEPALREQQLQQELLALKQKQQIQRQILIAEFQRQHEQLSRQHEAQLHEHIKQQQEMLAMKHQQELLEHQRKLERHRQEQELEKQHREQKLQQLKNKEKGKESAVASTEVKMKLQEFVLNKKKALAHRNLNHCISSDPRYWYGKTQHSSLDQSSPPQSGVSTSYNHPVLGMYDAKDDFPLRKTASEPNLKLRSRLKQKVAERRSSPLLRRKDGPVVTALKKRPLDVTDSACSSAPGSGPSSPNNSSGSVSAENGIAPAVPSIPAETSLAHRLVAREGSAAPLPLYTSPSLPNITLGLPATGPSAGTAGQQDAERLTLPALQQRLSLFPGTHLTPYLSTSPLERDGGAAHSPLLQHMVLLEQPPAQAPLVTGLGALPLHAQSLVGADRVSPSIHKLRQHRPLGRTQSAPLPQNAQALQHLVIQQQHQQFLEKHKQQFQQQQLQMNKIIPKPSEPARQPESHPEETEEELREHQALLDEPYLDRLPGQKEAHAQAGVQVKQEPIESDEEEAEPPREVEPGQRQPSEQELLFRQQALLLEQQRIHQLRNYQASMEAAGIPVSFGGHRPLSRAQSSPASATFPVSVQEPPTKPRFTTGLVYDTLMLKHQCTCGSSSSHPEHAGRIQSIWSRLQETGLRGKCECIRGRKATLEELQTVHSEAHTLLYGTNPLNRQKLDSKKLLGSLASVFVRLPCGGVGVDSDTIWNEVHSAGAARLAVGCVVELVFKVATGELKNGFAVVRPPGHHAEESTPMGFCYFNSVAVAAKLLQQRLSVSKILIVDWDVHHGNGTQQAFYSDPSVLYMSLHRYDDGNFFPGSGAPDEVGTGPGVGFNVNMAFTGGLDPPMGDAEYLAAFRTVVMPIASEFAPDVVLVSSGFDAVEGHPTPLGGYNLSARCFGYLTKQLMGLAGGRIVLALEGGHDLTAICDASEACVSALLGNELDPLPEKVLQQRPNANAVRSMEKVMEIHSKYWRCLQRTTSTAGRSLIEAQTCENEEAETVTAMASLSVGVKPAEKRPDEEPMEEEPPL
Experimental: as §1

[6] = tested on: micronucleated erythrocytes; details: administered to mice, Zolinza package leaflet; cited from earlier work
[7] = 400 mg/day, Zolinza package leaflet; cited from earlier work
[8] = tested on: bacteria; details: in vitro, Zolinza package leaflet; cited from earlier work
[9] = tested on: latent HIV reservoir; details: combined with HAART, clinical studies; cited from earlier work

Chain of HDAC9 (Q9UKV0 whole entry, canonical isoform): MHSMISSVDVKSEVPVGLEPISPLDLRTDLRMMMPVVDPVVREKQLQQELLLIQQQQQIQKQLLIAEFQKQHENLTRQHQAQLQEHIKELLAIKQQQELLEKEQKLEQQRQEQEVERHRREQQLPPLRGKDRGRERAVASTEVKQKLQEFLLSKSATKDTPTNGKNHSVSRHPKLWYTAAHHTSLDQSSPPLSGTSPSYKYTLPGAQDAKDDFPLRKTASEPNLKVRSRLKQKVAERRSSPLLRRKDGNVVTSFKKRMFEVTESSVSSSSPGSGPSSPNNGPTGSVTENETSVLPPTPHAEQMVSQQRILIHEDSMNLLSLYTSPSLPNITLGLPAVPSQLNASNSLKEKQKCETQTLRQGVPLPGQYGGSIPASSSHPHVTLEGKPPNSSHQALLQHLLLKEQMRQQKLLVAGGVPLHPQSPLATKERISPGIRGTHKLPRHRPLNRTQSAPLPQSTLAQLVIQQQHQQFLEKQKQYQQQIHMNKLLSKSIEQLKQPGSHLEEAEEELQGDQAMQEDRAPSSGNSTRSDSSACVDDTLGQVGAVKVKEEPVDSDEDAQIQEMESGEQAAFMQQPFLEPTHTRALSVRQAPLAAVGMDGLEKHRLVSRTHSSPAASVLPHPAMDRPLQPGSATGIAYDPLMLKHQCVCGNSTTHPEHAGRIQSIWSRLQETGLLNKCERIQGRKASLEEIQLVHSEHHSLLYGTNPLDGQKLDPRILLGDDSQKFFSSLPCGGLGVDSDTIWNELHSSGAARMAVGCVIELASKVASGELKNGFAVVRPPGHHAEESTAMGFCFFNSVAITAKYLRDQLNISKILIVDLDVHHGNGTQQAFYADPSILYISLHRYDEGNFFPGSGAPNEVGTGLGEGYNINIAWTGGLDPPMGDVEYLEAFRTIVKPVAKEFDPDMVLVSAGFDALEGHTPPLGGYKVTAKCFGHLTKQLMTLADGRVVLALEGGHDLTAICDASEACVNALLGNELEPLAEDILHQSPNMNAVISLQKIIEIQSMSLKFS

With `CCN(CC)Cc1ccc2cc(COC(=O)Nc3ccc(C(=O)NO)cc3)ccc2c1.Cl` [ITF2357, Diethyl-[6-(4-hydroxycarbamoyl-phenylcarbamoyloxymethyl)-naphtalen-2-yl-methyl]ammonium chloride] the IC50 [1] was 518 nM, the IC50 [2] was 351 nM and the “increase of the number of times in the level of p24 with respect to control” value (“increase of the number of times” for short) ([3]; 31 nM) was 1 times. For the same compound, the “increase of the number of times” value ([3]; 63 nM) was 1 times, the “increase of the number of times” value ([3]; 125 nM) was 2 times and the “increase of the number of times” value ([3]; 250 nM) was 15 times. For the same compound, the mutagenicity [4] was “non-mutagenic” and the IC50 [5] was 724 nM.
For `O=C(CCCCCCC(=O)Nc1ccccc1)NO` [SAHA], the “incidence of micronucleated erythrocytes” value [6] is given as “increases the incidence of micronucleated erythrocytes”, the “adverse effects in patients” value [7] is given as “numerous, serious adverse effects such as diarrhoea, tiredness, nausea, thrombocytopenia, anorexia and dysgeusia” and the “mutagenicity in bacterial back-mutation assays (Ames test)” value [8] is given as “mutagenic”.
In the case of `CCCC(CCC)C(=O)O` [VPA, Valproic acid], the “diminution of the latent reservoir” value [9] is given as “without leading to any considerable diminution of the latent reservoir”.

From patent US8637702B2, “Derivatives of N-hydroxybenzamide for treating HIV infections” (Italfarmaco S.p.A., priority 2009, dated 2014)
